This assay has as its system human σ1 receptor and human μ-opioid receptor. Nature of the assay: Human σ1 receptor radioligand assay and human μ-opioid receptor radioligand assay (μ and σ1 dual binding). Set-up: key to μ and σ1 dual binding: +: Both Ki-μ and Ki-σ1>=500 nM; ++: One Ki<500 nM while the other Ki is >=500 nM; +++: Both Ki-μ and Ki-σ1<500 nM; ++++: Both Ki-μ and Ki-σ1<100 nM.
[1] abbreviates: combined class for Ki-μ ([3H]-DAMGO, CHO-K1 membranes) and Ki-σ1 ([3H](+)-pentazocine, HEK-293 membranes).

Like-named read-outs stand apart in the source and are kept apart here.

`CN1CCc2ccccc2C12CCN(CC1CCOCC1)CC2` [Example 67, 2-methyl-1′-((tetrahydro-2H-pyran-4-yl)methyl)-3,4-dihydro-2H-spiro[isoquinoline-1,4′-piperidine]]: the “μ and σ1 dual binding” value is given as “++”.

Consider `CN(C)C(=O)CCN1CCC2(CC1)c1ccccc1CCN2C` [Example 68, N,N-dimethyl-3-(2-methyl-3,4-dihydro-2H-spiro[isoquinoline-1,4′-piperidine]-1′-yl)propanamide], for which the Ki is under 500 nM.

`CN1CCc2ccccc2C12CCN(CC(=O)c1ccccc1)CC2` [Example 69, 2-(2-methyl-3,4-dihydro-2H-spiro[isoquinoline-1,4′-piperidine]-1′-yl)-1-phenylethanone]: the Ki is under 500 nM.

As for `CN1CCc2ccccc2C12CCN(CC(=O)N1CCOCC1)CC2` [Example 70, 2-(2-methyl-3,4-dihydro-2H-spiro[isoquinoline-1,4′-piperidine]-1′-yl)-1-morpholinoethanone], the Ki was under 500 nM.

`CN1CCc2ccccc2C12CCN(CC(=O)N1CCCCC1)CC2` [Example 71, 2-(2-methyl-3,4-dihydro-2H-spiro[isoquinoline-1,4′-piperidine]-1′-yl)-1-(piperidin-1-yl)ethanone] yielded a Ki of under 500 nM.

For the molecule `CN(C(=O)CN1CCC2(CC1)c1ccccc1CCN2C)c1ccccc1` [Example 72, N-methyl-2-(2-methyl-3,4-dihydro-2H-spiro[isoquinoline-1,4′-piperidine]-1′-yl)-N-phenylacetamide], the “μ and σ1 dual binding” value is on record as “++”.

As to `CN(C)C(=O)CN1CCC2(CC1)c1ccccc1CCN2C` [Example 73, N,N-dimethyl-2-(2-methyl-3,4-dihydro-2H-spiro[isoquinoline-1,4′-piperidine]-1′-yl)acetamide], the “μ and σ1 dual binding” value was “++”.

`CN1CCc2ccccc2C12CCN(CCC1CCOCC1)CC2` [Example 74, 2-methyl-1′-(2-(tetrahydro-2H-pyran-4-yl)ethyl)-3,4-dihydro-2H-spiro[isoquinoline-1,4′-piperidine]]: the Ki is under 500 nM.

Regarding `CN1CCc2ccccc2C12CCN(CCc1ccccn1)CC2` [Example 75, 2-methyl-1′-(2-(pyridin-2-yl)ethyl)-3,4-dihydro-2H-spiro[isoquinoline-1,4′-piperidine]], the Ki is under 500 nM.

In turn, `CN1CCc2ccccc2C12CCN(CCc1cccnc1)CC2` [Example 76, 2-methyl-1′-(2-(pyridin-3-yl)ethyl)-3,4-dihydro-2H-spiro[isoquinoline-1,4′-piperidine]] yielded a Ki of under 500 nM.

As for `COCCN1CCC2(CC1)c1ccccc1CCN2C` [Example 77, 1′-(2-methoxyethyl)-2-methyl-3,4-dihydro-2H-spiro[isoquinoline-1,4′-piperidine]], the “μ and σ1 dual binding” value was “++”.

The molecule `CC(C)OCCN1CCC2(CC1)c1ccccc1CCN2C` [Example 78, 1′-(2-isopropoxyethyl)-2-methyl-3,4-dihydro-2H-spiro[isoquinoline-1,4′-piperidine]] yielded a Ki of under 500 nM.

As for `CN1CCc2ccccc2C12CCN(CCN1CCCCC1)CC2` [Example 79, 2-methyl-1′-(2-(piperidin-1-yl)ethyl)-3,4-dihydro-2H-spiro[isoquinoline-1,4′-piperidine]], the inhibition constant (Ki) was under 500 nM.

As to `CN1CCc2ccccc2C12CCN(CCN1CCOCC1=O)CC2` [Example 80, 4-(2-(2-methyl-3,4-dihydro-2H-spiro[isoquinoline-1,4′-piperidine]-1′-yl)ethyl)morpholin-3-one], the Ki under setting [1] was at least 500 nM.

Take `CN(C(=O)CCN1CCC2(CC1)c1ccccc1CCN2C)c1ccccc1` [Example 81, N-methyl-3-(2-methyl-3,4-dihydro-2H-spiro[isoquinoline-1,4′-piperidine]-1′-yl)-N-phenylpropanamide]: the “μ and σ1 dual binding” value is listed as “++”.

In the case of `CN1CCc2ccccc2C12CCN(Cc1ccccn1)CC2` [Example 82, 2-methyl-1′-(pyridin-2-ylmethyl)-3,4-dihydro-2H-spiro[isoquinoline-1,4′-piperidine]], the Ki was under 500 nM.

For the molecule `CN1CCc2ccccc2C12CCN(Cc1ccncc1)CC2` [Example 83, 2-methyl-1′-(pyridin-4-ylmethyl)-3,4-dihydro-2H-spiro[isoquinoline-1,4′-piperidine]], the “μ and σ1 dual binding” value is “++”.

Take `CN1CCc2ccccc2C12CCN(Cc1cccnc1)CC2` [Example 84, 2-methyl-1′-(pyridin-3-ylmethyl)-3,4-dihydro-2H-spiro[isoquinoline-1,4′-piperidine]]: the Ki is under 500 nM.

On to `CN1CCc2ccccc2C12CCN(CCc1cccc([N+](=O)[O-])c1)CC2` [Example 85, 2-methyl-1′-(3-nitrophenethyl)-3,4-dihydro-2H-spiro[isoquinoline-1,4′-piperidine]], for which the Ki under setting [1] is at least 500 nM.

On to `CC(C(=O)N1CCC(F)CC1)N1CCC2(CC1)c1ccccc1CCN2C` (stereo not shown) [Example 86, 1-(4-fluoropiperidin-1-yl)-2-(2-methyl-3,4-dihydro-2H-spiro[isoquinoline-1,4′-piperidine]-1′-yl)propan-1-one], for which the “μ and σ1 dual binding” value is on record as “++”.

Consider `CC(C)CN(C)C(=O)CN1CCC2(CC1)c1ccccc1CCN2C` [Example 87, N-isobutyl-N-methyl-2-(2-methyl-3,4-dihydro-2H-spiro[isoquinoline-1,4′-piperidine]-1′-yl)acetamide], for which the “μ and σ1 dual binding” value was “++”.

Consider `CN1CCc2ccccc2C12CCN(CC(=O)N1CCCC(F)(F)C1)CC2` [Example 88, 1-(3,3-difluoropiperidin-1-yl)-2-(2-methyl-3,4-dihydro-2H-spiro[isoquinoline-1,4′-piperidine]-1′-yl)ethanone], for which the “μ and σ1 dual binding” value is listed as “++”.

As for `CCN(C(=O)CN1CCC2(CC1)c1ccccc1CCN2C)C(C)C` [Example 89, N-ethyl-N-isopropyl-2-(2-methyl-3,4-dihydro-2H-spiro[isoquinoline-1,4′-piperidine]-1′-yl)acetamide], the Ki was under 500 nM.

Take `CN1CCc2ccccc2C12CCN(CC(=O)N1CCCC1)CC2` [Example 90, 2-(2-methyl-3,4-dihydro-2H-spiro[isoquinoline-1,4′-piperidine]-1′-yl)-1-(pyrrolidin-1-yl)ethanone]: the “μ and σ1 dual binding” value is on record as “++”.

As for `CN1CCc2ccccc2C12CCN(CC(=O)N1CCC(C(F)(F)F)CC1)CC2` [Example 91, 2-(2-methyl-3,4-dihydro-2H-spiro[isoquinoline-1,4′-piperidine]-1′-yl)-1-(4-(trifluoromethyl)piperidin-1-yl)ethanone], the Ki was under 500 nM.

Consider `CN1CCc2ccccc2C12CCN(CC(=O)N1CCC(F)(F)C1)CC2` [Example 92, 1-(3,3-difluoropyrrolidin-1-yl)-2-(2-methyl-3,4-dihydro-2H-spiro[isoquinoline-1,4′-piperidine]-1′-yl)ethanone], for which the “μ and σ1 dual binding” value is “++”.

`CN(Cc1ccccc1)C(=O)CN1CCC2(CC1)c1ccccc1CCN2C` [Example 93, N-benzyl-N-methyl-2-(2-methyl-3,4-dihydro-2H-spiro[isoquinoline-1,4′-piperidine]-1′-yl)acetamide] had a Ki of under 100 nM.

For `CN1CCc2ccccc2C12CCN(CC(=O)N1CC[C@H](F)C1)CC2` [Example 94, (S)-1-(3-fluoropyrrolidin-1-yl)-2-(2-methyl-3,4-dihydro-2H-spiro[isoquinoline-1,4′-piperidine]-1′-yl)ethanone], the “μ and σ1 dual binding” value was “++”.

Turning to `CN1CCc2ccccc2C12CCN(CC(=O)N1CC[C@@H](F)C1)CC2` [Example 95, (R)-1-(3-fluoropyrrolidin-1-yl)-2-(2-methyl-3,4-dihydro-2H-spiro[isoquinoline-1,4′-piperidine]-1′-yl)ethanone], the “μ and σ1 dual binding” value is “++”.

Turning to `CN1CCc2ccccc2C12CCN(CC(O)c1cccnc1)CC2` (stereo not shown) [Example 96, 2-(2-methyl-3,4-dihydro-2H-spiro[isoquinoline-1,4′-piperidine]-1′-yl)-1-(pyridin-3-yl)etanol], the “μ and σ1 dual binding” value is on record as “++”.

In the case of `CN1CCc2ccccc2C12CCN(CC(O)c1ccccn1)CC2` (stereo not shown) [Example 97, 2-(2-methyl-3,4-dihydro-2H-spiro[isoquinoline-1,4′-piperidine]-1′-yl)-1-(pyridin-2-yl)ethanol], the “μ and σ1 dual binding” value is “++”.

For the molecule `CN1CCc2ccccc2C12CCN(CC(O)c1ccncc1)CC2` (stereo not shown) [Example 98, 2-(2-methyl-3,4-dihydro-2H-spiro[isoquinoline-1,4′-piperidine]-1′-yl)-1-(pyridin-4-yl)ethanol], the Ki was under 500 nM.

As to `CN1CCc2ccccc2C12CCN(C[C@H](O)c1ccncc1)CC2` [Example 99, (R)-2-(2-methyl-3,4-dihydro-2H-spiro[isoquinoline-1,4′-piperidine]-1′-yl)-1-(pyridin-4-yl)ethanol], the Ki was under 500 nM.

Take `CN1CCc2ccccc2C12CCN(C[C@@H](O)c1ccncc1)CC2` [Example 100, (S)-2-(2-methyl-3,4-dihydro-2H-spiro[isoquinoline-1,4′-piperidine]-1′-yl)-1-(pyridin-4-yl)ethanol]: the inhibition constant Ki is under 500 nM.

In turn, `CCN(CC1CC1)C(=O)CN1CCC2(CC1)c1ccccc1CCN2C` [Example 101, N-(cyclopropylmethyl)-N-ethyl-2-(2-methyl-3,4-dihydro-2H-spiro[isoquinoline-1,4′-piperidine]-1′-yl)acetamide] showed a Ki of under 500 nM.

As to `CC(C)N(C(=O)CN1CCC2(CC1)c1ccccc1CCN2C)C(C)C` [Example 102, N,N-diisopropyl-2-(2-methyl-3,4-dihydro-2H-spiro[isoquinoline-1,4′-piperidine]-1′-yl)acetamide], the “μ and σ1 dual binding” value was “++”.

Consider `CC(C)N(C)C(=O)CN1CCC2(CC1)c1ccccc1CCN2C` [Example 103, N-isopropyl-N-methyl-2-(2-methyl-3,4-dihydro-2H-spiro[isoquinoline-1,4′-piperidine]-1′-yl)acetamide], for which the Ki is under 500 nM.

The record behind these values is patent US10407428B2, “Spiro-isoquinoline-1,4′-piperidine compounds having multimodal activity against pain” (ESTEVE PHARMACEUTICALS, S.A., priority 2014, dated 2019).
